Laboratory results from ChEMBL document CHEMBL1201862, “PubChem BioAssay data set” (2004).
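48-hour exposure; five concentrations; linearly interpolated endpoints. At the GI50, growth is halved.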 Activity calls are given as the source filed them. Rule as the data show it: active = GI50 up to about 1.1 µM and inactive = higher.

Assays:
Assay in all cases: NCI tumour cell line growth inhibition, 48 h
[1] = system: HL-60
[2] = system: ACHN
[3] = system: SN12C
[4] = system: COLO 205
[5] = system: XF498
[6] = system: HCT-15
[7] = system: MOLT-4
[8] = system: NCI-H226
[9] = system: 786-0
[10] = system: DMS-114
[11] = system: M14
[12] = system: SK-MEL-28
[13] = system: NCI-H23
[14] = system: SNB-19
[15] = system: U-251
[16] = system: HCT-116
[17] = system: SF-539
[18] = system: Malme-3M
[19] = system: RXF 393
[20] = system: SW-620
[21] = system: IGROV-1
[22] = system: SK-MEL-5
[23] = system: UO-31
[24] = system: HCC 2998
[25] = system: NCI-H522
[26] = system: EKVX
[27] = system: NCI-H460
[28] = system: K562
[29] = system: SNB-75
[30] = system: SK-OV-3
[31] = system: HOP-92
[32] = system: UACC-62
[33] = system: SK-MEL-2
[34] = system: SF-295
[35] = system: KM12
[36] = system: OVCAR-5
[37] = system: SNB-78
[38] = system: SF-268
[39] = system: CCRF-CEM
[40] = system: LOX IMVI
[41] = system: A549
[42] = system: HT-29
[43] = system: OVCAR-8
[44] = system: HOP-18
[45] = system: UACC-257
[46] = system: HOP-62
[47] = system: A498
[48] = system: CAKI-1
[49] = system: LXFL 529
[50] = system: KM-20L2
[51] = system: DLD-1
[52] = system: OVCAR-4
[53] = system: RPMI-8226
[54] = system: TK-10
[55] = system: DMS-273
[56] = system: M19-MEL
[57] = system: OVCAR-3
[58] = system: MCF7
[59] = system: NCI/ADR-RES

In the case of `COc1ccc(CCCN2c3ccccc3Sc3ccccc32)cc1`, the GI50 [1] is reported as 41.3 µM (inactive), the GI50 [2] is reported as > 100 µM (inactive) and the GI50 [3] is reported as > 100 µM (inactive). For the same compound, the GI50 [4] was 43.4 µM (inactive), the GI50 [5] was > 100 µM (inactive) and the GI50 [6] was 27.9 µM. For the same compound, the GI50 [7] was 19.6 µM (inactive), the GI50 [8] was > 100 µM (inactive) and the GI50 [9] was 35.1 µM (inactive). For the same compound, the GI50 [10] was 28.1 µM (inactive), the GI50 [11] was > 100 µM (inactive) and the GI50 [12] was > 100 µM (inactive). For the same compound, the GI50 [13] was > 100 µM (inactive), the GI50 [14] was > 100 µM (inactive) and the GI50 [15] was > 100 µM (inactive). For the same compound, the GI50 [16] was 36.3 µM (inactive), the GI50 [17] was > 100 µM (inactive) and the GI50 [18] was > 100 µM (inactive). For the same compound, the GI50 [19] was > 100 µM (inactive), the GI50 [20] was 22.8 µM (inactive) and the GI50 [21] was > 100 µM (inactive). The GI50 [22] was > 100 µM (inactive), the GI50 [23] was > 100 µM (inactive) and the GI50 [24] was > 100 µM (inactive). For the same compound, the GI50 [25] was 33.1 µM (inactive), the GI50 [26] was > 100 µM (inactive) and the GI50 [27] was 99.5 µM (inactive). For the same compound, the GI50 [28] was 17.3 µM (inactive), the GI50 [29] was > 100 µM (inactive) and the GI50 [30] was > 100 µM (inactive). For the same compound, the GI50 [31] was > 100 µM (inactive), the GI50 [32] was > 100 µM (inactive) and the GI50 [33] was > 100 µM (inactive). The GI50 [34] was > 100 µM (inactive), the GI50 [35] was > 100 µM (inactive) and the GI50 [36] was > 100 µM (inactive). The GI50 [37] was 91.8 µM (inactive), the GI50 [38] was > 100 µM (inactive) and the GI50 [39] was 51.2 µM (inactive). The GI50 [40] was 52.8 µM (inactive), the GI50 [41] was > 100 µM (inactive) and the GI50 [42] was 54.1 µM (inactive). For the same compound, the GI50 [43] was > 100 µM (inactive), the GI50 [44] was > 100 µM (inactive) and the GI50 [45] was > 100 µM (inactive). For the same compound, the GI50 [46] was > 100 µM (inactive), the GI50 [47] was > 100 µM (inactive) and the GI50 [48] was > 100 µM (inactive). The GI50 [49] was 73.1 µM (inactive), the GI50 [50] was 53.8 µM (inactive) and the GI50 [51] was > 100 µM (inactive). The GI50 [52] was 53.2 µM (inactive), the GI50 [53] was 32.3 µM (inactive) and the GI50 [54] was > 100 µM (inactive). The GI50 [55] was 33.5 µM (inactive).

With `CN(C)CCNC(=O)c1cccc2c1C(=O)c1ccccc1C2=O` the GI50 [1] was 20.6 µM (inactive), the GI50 [56] was 20 µM (inactive) and the GI50 [3] was 33.7 µM (inactive). For the same compound, the GI50 [4] was 16 µM (inactive), the GI50 [57] was 19.3 µM (inactive) and the GI50 [5] was > 100 µM (inactive). The GI50 [6] was 30.7 µM, the GI50 [7] was 20.5 µM (inactive) and the GI50 [8] was > 94 µM (inactive). The GI50 [10] was 15.7 µM (inactive), the GI50 [12] was 45.3 µM (inactive) and the GI50 [13] was 22 µM (inactive). For the same compound, the GI50 [14] was 28 µM (inactive), the GI50 [15] was 31.7 µM (inactive) and the GI50 [16] was 25.1 µM (inactive). For the same compound, the GI50 [17] was 40.6 µM (inactive), the GI50 [18] was 13.1 µM (inactive) and the GI50 [19] was 55 µM (inactive). The GI50 [20] was 28.9 µM (inactive), the GI50 [21] was 26.4 µM (inactive) and the GI50 [22] was 20.5 µM (inactive). For the same compound, the GI50 [23] was 54 µM (inactive), the GI50 [24] was 39.1 µM (inactive) and the GI50 [25] was 25.1 µM (inactive). The GI50 [26] was 63.8 µM (inactive), the GI50 [27] was 29.6 µM (inactive) and the GI50 [28] was 19.1 µM (inactive). The GI50 [29] was > 100 µM (inactive), the GI50 [30] was 58.9 µM (inactive) and the GI50 [31] was 23.8 µM (inactive). For the same compound, the GI50 [58] was 16.2 µM (inactive), the GI50 [32] was 21.4 µM (inactive) and the GI50 [33] was > 37.3 µM (inactive). The GI50 [34] was 33.7 µM (inactive), the GI50 [35] was > 58.1 µM (inactive) and the GI50 [36] was 61.5 µM (inactive). The GI50 [37] was 24.9 µM (inactive), the GI50 [38] was > 100 µM (inactive) and the GI50 [39] was 23.8 µM (inactive). For the same compound, the GI50 [40] was 25.6 µM (inactive), the GI50 [41] was 37.2 µM (inactive) and the GI50 [42] was 26.2 µM (inactive). The GI50 [59] was 27.4 µM (inactive), the GI50 [43] was 29.4 µM (inactive) and the GI50 [44] was > 100 µM (inactive). The GI50 [45] was 19.5 µM (inactive), the GI50 [46] was > 31.6 µM (inactive) and the GI50 [47] was > 100 µM (inactive). The GI50 [48] was 32.4 µM (inactive), the GI50 [50] was 28 µM (inactive) and the GI50 [51] was 25.5 µM (inactive). The GI50 [52] was 28.2 µM (inactive), the GI50 [53] was 50.9 µM (inactive) and the GI50 [55] was 23.7 µM (inactive).
